For the data set, the system named is CCRIS mutagenicity, Ames/micronucleus/aberration tests. Kind of data set: CCRIS mutagenicity studies. The note with it: Test System: AMES SALMONELLA TYPHIMURIUM
The mark [1] stands for this setting: Strain/Indicator: TA98, Metabolic Activation: NONE, Method: STANDARD PLATE.
The mark [2] stands for this setting: Strain/Indicator: TA100, Metabolic Activation: NONE, Method: STANDARD PLATE.
Setting [3] is: Strain/Indicator: TA98, Metabolic Activation: NONE, Method: PREINCUBATION

Activity calls are given as the source filed them. No rule for the calls is given here.

Take `CSCCl`: the mutagenic call is “inactive; negative” (Strain/Indicator: TA98, Metabolic Activation: NONE, Method: SPOT TEST); “inactive; negative” (Strain/Indicator: TA98, Metabolic Activation: RAT, LIVER, S-9, AROCLOR 1254, Method: SPOT TEST); “active; positive” (Strain/Indicator: TA100, Metabolic Activation: NONE, Method: SPOT TEST); “active; positive” (Strain/Indicator: TA100, Metabolic Activation: RAT, LIVER, S-9, AROCLOR 1254, Method: SPOT TEST); “active; positive” (Strain/Indicator: TA102, Metabolic Activation: RAT, LIVER, S-9, AROCLOR 1254, Method: SPOT TEST).
Regarding `O=[N+]([O-])c1c2c(cc3ccccc13)C=C[C@@H](O)[C@@H]2O`, the mutagenic call is, setting by setting: under setting [1], “inactive; negative”; (Strain/Indicator: TA98, Metabolic Activation: RAT, LIVER, S-9, Method: STANDARD PLATE) “inactive; negative”; under setting [2], “inactive; negative”; (Strain/Indicator: TA100, Metabolic Activation: RAT, LIVER, S-9, Method: STANDARD PLATE) “inactive; negative”.
On to `CC1=C2C(=CC(C)(C)[C@@H]2O)C(=O)[C@](C)(O)C12CC2`, for which the mutagenic call under setting [3] was “active; positive”.
For the molecule `Nc1ccc(Nc2ccc([N+](=O)[O-])cc2)cc1`, the mutagenic call is “inactive; negative” (Strain/Indicator: TA98(NR), Metabolic Activation: NONE, Method: PREINCUBATION); “active; positive” under setting [3]; “active; positive” (Strain/Indicator: TA98, Metabolic Activation: RAT, LIVER, S-9, AROCLOR 1254, Method: PREINCUBATION).
For `O=c1cc(-c2ccccc2)cc(-c2ccccc2)n1/N=C/c1ccc([N+](=O)[O-])o1`, the mutagenic call runs as follows: (Strain/Indicator: TA97, Metabolic Activation: NONE, Method: STANDARD PLATE) “inactive; negative”; under setting [1], “inactive; negative”; under setting [2], “active; positive”; (Strain/Indicator: TA102, Metabolic Activation: NONE, Method: STANDARD PLATE) “inactive; negative”.
For `c1ccc2c(c1)C1CCCCC1[C@@H]1O[C@@H]21` (stereo partly specified), the mutagenic call under setting [1] is “inactive; negative” and the mutagenic call under setting [2] is “inactive; negative”.
As to `CCSCCSP(=S)(OC)OC`, the mutagenic call was “inactive; negative” (Strain/Indicator: TA97A, Metabolic Activation: NONE, Method: STANDARD PLATE); “inactive; negative” (Strain/Indicator: TA97A, Metabolic Activation: PLANT, HOMOGENATE, S-14, Method: STANDARD PLATE); “inactive; negative” (Strain/Indicator: TA97A, Metabolic Activation: S-9, Method: STANDARD PLATE); “inactive; negative” under setting [1]; “inactive; negative” (Strain/Indicator: TA98, Metabolic Activation: PLANT, HOMOGENATE, S-14, Method: STANDARD PLATE); “inactive; negative” (Strain/Indicator: TA98, Metabolic Activation: S-9, Method: STANDARD PLATE). The mutagenic call under setting [2] was “inactive; negative”; the mutagenic call (Strain/Indicator: TA100, Metabolic Activation: PLANT, HOMOGENATE, S-14, Method: STANDARD PLATE) is “inactive; negative”; the mutagenic call (Strain/Indicator: TA100, Metabolic Activation: S-9, Method: STANDARD PLATE) is “inactive; negative”; the mutagenic call (Strain/Indicator: TA1535, Metabolic Activation: PLANT, HOMOGENATE, S-14, Method: STANDARD PLATE) was “inactive; negative”; the mutagenic call (Strain/Indicator: TA1535, Metabolic Activation: S-9, Method: STANDARD PLATE) is “inactive; negative”; the mutagenic call (Strain/Indicator: TA1535, Metabolic Activation: S-9 MIX, Method: STANDARD PLATE) is “active; positive”.

These data come from PubChem BioAssay AID1259407 (Chemical Carcinogenesis Research Information System (CCRIS), 2018).
